This is an account of results in patent publication US20090226536A1, “METHODS AND MATERIALS RELATING TO ENHANCED PRODUCTION OF DOPAMINE NEURONS” (priority 2004, published 2009).

Assay [1] addresses T1, GSK-3β (Mus musculus, UniProt Q9WV60).
T1 construct: treatment of a DA precursor cell line derived from the substantia nigra, SN4741 (21) with KP or I3M led to a downregulation of GSK-3β protein levels; endogenous in cells; host or cells: SN4741 cells
The assay is described as follows: Immunoblotting of GSK-3β protein levels in SN4741 cells. The assay is classed as cell-based. Conditions: 15 μM KP and 5 μM I3M for 24 hours. Here is the method: (§1) E14.5 VMs obtained from time-mated Sprague-Dawley rats (ethical approval for animal experimentation was granted by Stockholms Norra Djurförsöks Etiska Nämnd) were dissected, mechanically dissociated, and plated at a final density of 1×10^5 cells per cm2 on poly-D-lysine coated plates (Falcon) in serum-free N2 medium, consisting of a 1:1 mixture of F12 and MEM (Invitrogen) with 5 μg/ml insulin, 100 μg/ml transferrin, 100 μM putrescine, 20 nM progesterone, 30 nM selenium, 6 mg/ml glucose and 1 mg/ml BSA (all purchased from Sigma). Cultures were kept three days in vitro, in a 37° C. incubator, at 5% CO2, before fixation. MN9D and SN4741 cells were grown as described in Choi et al., 1991 and Son et al., 1999. MN9D cultures were fixed after four days in vitro. I3M and KP (Alexis Biochemicals, Göteborg, Sweden) were diluted in DMSO and added to the cultures at the time of plating. […] 10 μM BrdU was added to the culture media 6 hours prior to fixation.
(§2) Cell were lysed for 15 min in a modified RIPA buffer containing 20 mM Tris (pH 7.5), 140 mM NaCl, 10% glycerol, 1% IGEPAL, 1 mM β-glycerol-phosphate, 1 mM Na3VO4 and complete protease inhibitors (Roche). Plates were scraped and the cell lysate was centrifuged in a microfuge for 5 min. […] Equal amounts of protein were analysed by polyacrylamide gel electrophoresis (10% polyacrylamide). […]

Assay [2] has as its system β-catenin. The assay is described as follows: Immunoblotting of β-catenin protein in VM precursors. Format: cell-based, rat. Conditions: 15 μM KP or 5 μM I3M for 24 hours. Here is the method: as §1, §2
In general terms: Immunoblotting shows a protein as a band on a membrane.

Assay [3] relates to VM precursor cultures. Kind of assay: Total cell number, proliferation (BrdU) and active Caspase 3 in VM precursor cultures. Format: cell-based, rat. Conditions: for active Caspase 3 immunostaining: VM precursor cultures; for active Caspase 3 immunostaining / proliferation (BrdU incorporation): 15 μM KP, 5 μM I3M; for proliferation (BrdU incorporation): VM precursors, 6 h BrdU pulse; for total number of VM cells (Hoechst 33258 staining): after 3 days in culture, 15 μM KP and 5 μM I3M. Here is the method:
as §1
(§3) Cells were fixed in ice-cold 4% paraformaldehyde for 20 minutes and washed in PBS. For a detailed protocol of immunocytochemistry, see Castelo-Branco et al., 2003 (7). The following primary and secondary antibodies were used: mouse α-TH (1:1000 dilution—Immunostar), rabbit α-TH (1:250-Pelfreeze), mouse α-β-III-tubulin (1:1000-Promega), rabbit α.Nurr1 (1:1000-Santa Cruz), mouse α-MAP2 (1:200—Sigma), rabbit A-GFAP (1:400-Dako), mouse α.active-caspase III (1:100-Cell Signaling), mouse α-BrdU (1:100-Dako) and rat α.BrdU (1:100-Abcam), biotinylated 1:500, Cyanine-2 or rhodamine-coupled horse-α-mouse IgG 1:200 or goat α-rabbit IgG 1:200, from Vector and Jackson Laboratories). At the end of the staining procedure, the cultures were incubated with Hoechst 33258 reagent for 10 minutes. BrdU immunocytochemistry included an incubation for 30 minutes with 2NHCL. Images were acquired from stained cells in PBS at room temperature with a Zeiss Axioplan 100M microscope (LD Achrostigmat 20×, 0.3 PH1. 0-2 and LD Achroplan 40×, 0.60 Korr PH2. 0-2) and collected with a Hamamatsu camera C4742-95 (with QED imaging software).
(§4) Quantitative immunocytochemical data represent the means±standard errors of counts from ten non-overlapping fields, in three wells per condition from three to five separate experiments. For the RT-PCR experiments, five separate experiments were analysed and for the GSK-3β inhibitors dose response, two sets of experiments were analysed. Statistical analysis was performed in Prism 4 (GraphPad software, San Diego, USA) as described in the figure legends, with […] significance for all tests assumed at the level of p<0.05 (*p<0.05; **0.01<p<0.001; ***p<0.001). Statistical tests were chosen according to the distribution of the sample population.

The subject of assay [4] is rat VM E14.5 precursor cultures. The assay is described as follows: TH immunostaining, number of TH+ cells in VM precursor cultures. The assay is classed as cell-based. The conditions noted are these: for dose of maximal effect / optimal dose to increase TH+ cell numbers: dose-response in E14.5 VM precursors; for increase in the number of TH positive cells (maximal effect): rat VM E14.5 precursor cultures, three days in vitro, at 3-5 μM I3M, 15 μM KP. Here is the method: as §1, §3, §4

Assay [5] deals with GSK-3β and CDKs. The conditions noted are these: at 3-5 μM I3M and 15 μM KP; refs (20, 13); cited from earlier work.
Assay [6] deals with TH. Kind of assay: Immunoblotting of TH protein in VM precursors. The assay is classed as cell-based, rat. The conditions noted are these: 15 μM KP or 5 μM I3M for 24 hours. Here is the method:
as §1, §2

The subject of assay [7] is VM precursors. The assay is described as follows: Immunostaining for neuronal and glial differentiation (GFAP, TuJ1, MAP2, TH) of VM precursors. The assay is classed as cell-based, rat. The conditions noted are these: three days, 15 μM KP and 5 μM I3M. Here is the method:
as §1, §3, §4

The test system of assay [8] is MN9D cells. Kind of assay: MN9D cell number, proliferation and morphological differentiation. The assay is classed as cell-based. As to the method: as §1, §3
Assay [9] has as its system VM Nurr1+ precursors. Kind of assay: TH/Nurr1 double immunostaining, conversion of Nurr1+ precursors into TH+ neurons. The assay is classed as cell-based, rat. Conditions: three days after treatment with 15 μM KP. As to the method:
as §1
Cells were fixed in ice-cold 4% paraformaldehyde for 20 minutes and washed in PBS. […]
Quantitative immunocytochemical data represent the means±standard errors of counts from ten non-overlapping fields, in three wells per condition from three to five separate experiments. For the RT-PCR experiments, five separate experiments were analysed and for the GSK-3β inhibitors dose response, two sets of experiments were analysed. […]

Assay [10] relates to c-ret mRNA. Kind of assay: Real time RT-PCR of c-ret mRNA in VM precursor cultures. Format: cell-based, rat. Conditions: 15 μM KP, three days in vitro. The text has this: Total RNA was isolated from E14.5 VM precursor cultures (2.5×10^6 cells in 6 cm2 dishes) treated with the GSK-3β inhibitors for three days in vitro. For a description of reverse transcription reaction, real-time RT-PCR and c-ret primer sequences, see Castelo-Branco et al., 2003 (7). Quantum RNA classical 18S internal standard was purchased from Ambion (Austin, USA) and PCR primers from DNA Technology A/S, Aarhus, Denmark. The following PCR programme was used for SYBR Green detection on the ABI PRISM 5700 Detection System (PE AppliedBiosystems, Foster City, Calif., USA): 94° C. for 2 min, 35-40 cycles of 94° C. for 30 s, 59° C. for 30s, 72° C. for 15s and 80° C. for 5s. Statistical analysis of the results was performed by a 2-tailed Wilcoxon signed rank test. Significance for all tests was assumed at the level of p<0.05 (*p<0.05; **0.01<p<0.001; ***p<0.001).
A general note: Real-time PCR tracks product formation cycle by cycle.

[11] abbreviates: MN9D cells, 15 μM KP for four days.

T1 sequence (Q9WV60 whole entry): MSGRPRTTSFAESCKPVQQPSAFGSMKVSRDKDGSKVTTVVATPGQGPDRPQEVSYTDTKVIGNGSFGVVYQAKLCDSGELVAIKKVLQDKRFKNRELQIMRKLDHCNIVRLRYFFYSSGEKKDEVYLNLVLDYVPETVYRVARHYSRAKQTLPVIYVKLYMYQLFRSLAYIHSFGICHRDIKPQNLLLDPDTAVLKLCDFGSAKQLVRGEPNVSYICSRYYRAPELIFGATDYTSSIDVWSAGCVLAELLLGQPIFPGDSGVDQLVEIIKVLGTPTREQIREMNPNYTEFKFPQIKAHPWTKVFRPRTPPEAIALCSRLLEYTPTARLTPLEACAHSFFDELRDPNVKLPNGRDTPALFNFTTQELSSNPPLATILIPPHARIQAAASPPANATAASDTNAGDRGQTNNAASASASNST

As to `O=C1Nc2ccccc2/C1=C1/Nc2ccccc2/C1=N\O` [I3M, Indirubin-3-monoxime], in [1], the GSK-3β protein levels result is reported as “decreases”. Besides, the β-catenin protein levels entry in [2] is recorded as “increased”. In [3], the “active Caspase 3 immunostaining” value was “reduced”, the “proliferation (BrdU incorporation)” value was “significantly decreased” and the “total number of VM cells (Hoechst 33258 staining)” value is listed as “did not change”. In [4], the “dose of maximal effect / optimal dose to increase TH+ cell numbers” value was in the range of 3 to 5 µM and the “increase in the number of TH positive cells (maximal effect)” value is “five”. The “kinase selectivity at the concentrations used” value in assay [5] was “inhibits both GSK-3β and CDKs”. The TH protein levels result in assay [6] is “increased”. Besides, in assay [7], the “immature neurons (TuJ1 positive cells/Hoechst 33258)” value is recorded as “increased”, the “number of mature neurons (MAP2 positive cells/Hoechst 33258)” value is “increase”, the “proportion of TH+ DA neurons (TH+/TuJ1+ cells)” value is recorded as “marked increase” and the “total number of astrocytes (GFAP positive cells/Hoechst 33258)” value is “increased”.
With `O=C1Cc2c([nH]c3ccc(Br)cc23)-c2ccccc2N1` [KP, Kenpaullone], the GSK-3β protein levels entry in assay [1] was “decreases”. The “morphological differentiation of MN9D cells” value in [8] (15 μM KP for four days) is recorded as “induced morphological differentiation”. The “neurite extension of MN9D cells” value in [8] (KP treatment) is given as “increase”. In assay [8] (setting [11]), the “proliferation (BrdU incorporation)” value was “did not alter” and the “total number of cells (Hoechst 33258)” value was “did not alter”. Moreover, the “increase in the number of TH/Nurr1 double positive cells” value in assay [9] stood at 2.5 fold. In addition, the β-catenin protein levels entry in assay [2] is “increased”. Besides, in assay [3], the “active Caspase 3 immunostaining” value was “not modified”, the “proliferation (BrdU incorporation)” value is given as “not affected” and the “total number of VM cells (Hoechst 33258 staining)” value is “did not change”. In assay [4], the “dose of maximal effect / optimal dose to increase TH+ cell numbers” value was 15 µM and the “increase in the number of TH positive cells (maximal effect)” value was “three”. Besides, the “kinase selectivity at the concentrations used” value in [5] is reported as “GSK-3β selective inhibitor”. The “c-ret mRNA levels” value in [10] was “upregulated”. In addition, in assay [6], the TH protein levels result is on record as “increased”. Moreover, in assay [7], the “immature neurons (TuJ1 positive cells/Hoechst 33258)” value was “increased”, the “number of mature neurons (MAP2 positive cells/Hoechst 33258)” value is recorded as “increase”, the “proportion of TH+ DA neurons (TH+/TuJ1+ cells)” value is listed as “marked increase” and the “total number of astrocytes (GFAP positive cells/Hoechst 33258)” value is reported as “increased”.
